Species on record: Rattus norvegicus
Assay: DrugMatrix - Regimen: Daily Repeat
Assay type: toxicity, organism-based, Sprague-Dawley
Design: regimen Daily Repeat, gender Male, age 6-8 weeks
Conditions: in vivo, po, route oral GAVAGE, […]; for ABSOLUTE BASOPHIL / ABSOLUTE EOSINOPHIL / ABSOLUTE LYMPHOCYTE / ABSOLUTE MONOCYTE / ABSOLUTE SEGMENTED NEUTROPHIL / BASOPHIL / EOSINOPHIL / ERYTHROCYTE COUNT / HEMATOCRIT / HEMOGLOBIN / LEUKOCYTE COUNT / LYMPHOCYTE / MEAN CORPUSCULAR HEMOGLOBIN / MEAN CORPUSCULAR VOLUME / MONOCYTE / NEUTROPHIL / NUCLEATED RED BLOOD CELLS / PLATELET COUNT: tissue Blood; for ALANINE AMINOTRANSFERASE / ALBUMIN / ALKALINE PHOSPHATASE / ASPARTATE AMINOTRANSFERASE / BLOOD UREA NITROGEN / CARBON DIOXIDE / CHLORIDE / CHOLESTEROL / CREATINE PHOSPHOKINASE / CREATININE / GLUCOSE / LACTATE DEHYDROGENASE / LIPASE / PHOSPHORUS / POTASSIUM / SODIUM / TOTAL BILIRUBIN / TOTAL PROTEIN / URIC ACID: tissue Plasma
[1] = 0 mg/kg, 72 h, dose level Control, time 3 day
[2] = 0 mg/kg, 120 h, dose level Control, time 5 day
[3] = 70 mg/kg, 72 h, dose level M1, time 3 day

## CCCCCCCCc1ccc(O)cc1 [4-OCTYLPHENOL]
[1]
  ABSOLUTE BASOPHIL: 0 CELLS/uL
  ABSOLUTE EOSINOPHIL: 0 CELLS/uL
  ABSOLUTE LYMPHOCYTE: 11091.17 CELLS/uL
  ABSOLUTE MONOCYTE: 172.17 CELLS/uL
  ABSOLUTE SEGMENTED NEUTROPHIL: 1186.67 CELLS/uL
  BASOPHIL: 0%
  EOSINOPHIL: 0%
  ERYTHROCYTE COUNT: 5.87 x10E6/uL
  HEMATOCRIT: 36.87%
  HEMOGLOBIN: 14.03 G/DL
  LEUKOCYTE COUNT: 12.45 x10E3/uL
  LYMPHOCYTE: 88.67%
  MEAN CORPUSCULAR HEMOGLOBIN: 23.93 pg
  MEAN CORPUSCULAR VOLUME: 62.73 fL
  MONOCYTE: 1.5%
  NEUTROPHIL: 9.83%
  NUCLEATED RED BLOOD CELLS: 0 /100WBC
  PLATELET COUNT: 1150.33 x10E3/uL
  ALANINE AMINOTRANSFERASE: 67.17 u/L
  ALBUMIN: 4.03 G/DL
  ALKALINE PHOSPHATASE: 462.5 u/L
  ASPARTATE AMINOTRANSFERASE: 88 u/L
  BLOOD UREA NITROGEN: 13.17 mg/dL
  CARBON DIOXIDE: 29.33 mmol/L
  CHLORIDE: 101 MEQ/L
  CHOLESTEROL: 69.17 mg/dL
  CREATINE PHOSPHOKINASE: 292.5 u/L
  CREATININE: 0.17 mg/dL
  GLUCOSE: 167.5 mg/dL
  LACTATE DEHYDROGENASE: 198.5 u/L
  LIPASE: 10.67 u/L
  PHOSPHORUS: 11.73 mg/dL
  POTASSIUM: 5.91 MEQ/L
  SODIUM: 143.3 MEQ/L
  TOTAL BILIRUBIN: 0.18 mg/dL
  TOTAL PROTEIN: 5.7 G/DL
  URIC ACID: 1.3 mg/dL
[2]
  ABSOLUTE BASOPHIL: 0 CELLS/uL
  ABSOLUTE EOSINOPHIL: 64.33 CELLS/uL
  ABSOLUTE LYMPHOCYTE: 12494.67 CELLS/uL
  ABSOLUTE MONOCYTE: 117 CELLS/uL
  ABSOLUTE SEGMENTED NEUTROPHIL: 1340.67 CELLS/uL
  BASOPHIL: 0%
  EOSINOPHIL: 0.33%
  ERYTHROCYTE COUNT: 5.82 x10E6/uL
  HEMATOCRIT: 36.97%
  HEMOGLOBIN: 14.18 G/DL
  LEUKOCYTE COUNT: 14.02 x10E3/uL
  LYMPHOCYTE: 89%
  MEAN CORPUSCULAR HEMOGLOBIN: 24.42 pg
  MEAN CORPUSCULAR VOLUME: 63.52 fL
  MONOCYTE: 0.83%
  NEUTROPHIL: 9.83%
  NUCLEATED RED BLOOD CELLS: 0 /100WBC
  PLATELET COUNT: 1097.83 x10E3/uL
  ALANINE AMINOTRANSFERASE: 58.83 u/L
  ALBUMIN: 3.92 G/DL
  ALKALINE PHOSPHATASE: 414.17 u/L
  ASPARTATE AMINOTRANSFERASE: 89.17 u/L
  BLOOD UREA NITROGEN: 16.83 mg/dL
  CARBON DIOXIDE: 29.17 mmol/L
  CHLORIDE: 100.33 MEQ/L
  CHOLESTEROL: 54.5 mg/dL
  CREATINE PHOSPHOKINASE: 386.17 u/L
  CREATININE: 0.23 mg/dL
  GLUCOSE: 184.17 mg/dL
  LACTATE DEHYDROGENASE: 229.17 u/L
  LIPASE: 10.83 u/L
  PHOSPHORUS: 10.88 mg/dL
  POTASSIUM: 5.97 MEQ/L
  SODIUM: 142.2 MEQ/L
  TOTAL BILIRUBIN: 0.12 mg/dL
  TOTAL PROTEIN: 5.63 G/DL
  URIC ACID: 1.55 mg/dL
[3]
  ABSOLUTE BASOPHIL: 0 CELLS/uL
  ABSOLUTE EOSINOPHIL: 0 CELLS/uL
  ABSOLUTE LYMPHOCYTE: 11265.33 CELLS/uL
  ABSOLUTE MONOCYTE: 137 CELLS/uL
  ABSOLUTE SEGMENTED NEUTROPHIL: 1431 CELLS/uL
  BASOPHIL: 0%
  EOSINOPHIL: 0%
  ERYTHROCYTE COUNT: 5.68 x10E6/uL
  HEMATOCRIT: 36.37%
  HEMOGLOBIN: 13.93 G/DL
  LEUKOCYTE COUNT: 12.83 x10E3/uL
  LYMPHOCYTE: 88%
  MEAN CORPUSCULAR HEMOGLOBIN: 24.57 pg
  MEAN CORPUSCULAR VOLUME: 64.1 fL
  MONOCYTE: 1%
  NEUTROPHIL: 11%
  NUCLEATED RED BLOOD CELLS: 0 /100WBC
  PLATELET COUNT: 1181.67 x10E3/uL
  ALANINE AMINOTRANSFERASE: 74 u/L
  ALBUMIN: 3.87 G/DL
  ALKALINE PHOSPHATASE: 534.33 u/L
  ASPARTATE AMINOTRANSFERASE: 88.33 u/L
  BLOOD UREA NITROGEN: 15 mg/dL
  CARBON DIOXIDE: 27.33 mmol/L
  CHLORIDE: 102.33 MEQ/L
  CHOLESTEROL: 67 mg/dL
  CREATINE PHOSPHOKINASE: 215 u/L
  CREATININE: 0.13 mg/dL
  GLUCOSE: 152.67 mg/dL
  LACTATE DEHYDROGENASE: 181.67 u/L
  LIPASE: 10 u/L
  PHOSPHORUS: 11.4 mg/dL
  POTASSIUM: 5.59 MEQ/L
  SODIUM: 144.4 MEQ/L
  TOTAL BILIRUBIN: 0.13 mg/dL
  TOTAL PROTEIN: 5.53 G/DL
  URIC ACID: 1.63 mg/dL

— ChEMBL document CHEMBL3885881, “DrugMatrix”
